The values below come from ChEMBL document CHEMBL4619703, “Synthesis, G-Quadruplex DNA binding and cytotoxic properties of naphthalimide substituted styryl dyes” (Bioorg Med Chem, 2020).

Series [1] has as its system Quadruplex DNA. The series is described as follows: Binding affinity to human c-Myc G-quadruplex DNA at 2 uM incubated for 2 mins by UV- vis spectrophotometric analysis. It is filed as nucleic-acid assay.
The test system of series [2] is Quadruplex DNA. The series is described as follows: Binding affinity to human CM22 G-quadruplex DNA at 2 uM incubated for 2 mins by UV- vis spectrophotometric analysis. Format: nucleic-acid assay.
The subject of series [3] is Quadruplex DNA. The series is described as follows: Binding affinity to human Pu27 G-quadruplex DNA at 2 uM incubated for 2 mins by UV- vis spectrophotometric analysis. Format: nucleic-acid assay.
For series [4], the system named is Quadruplex DNA. The series is described as follows: Binding affinity to human Hum24 G-quadruplex DNA at 2 uM incubated for 2 mins by UV- vis spectrophotometric analysis. It is filed as nucleic-acid assay.
Series [5] has as its system Quadruplex DNA. The series is described as follows: Binding affinity of human G3T3 G-quadruplex DNA at 2 uM incubated for 2 mins by UV- vis spectrophotometric analysis. It is filed as nucleic-acid assay.
For series [6], the system named is Quadruplex DNA. The series is described as follows: Binding affinity to human Htg-21 G-quadruplex DNA at 2 uM incubated for 2 mins by UV- vis spectrophotometric analysis. Format: nucleic-acid assay.
The subject of series [7] is Quadruplex DNA. The series is described as follows: Binding affinity to human 22AG G-quadruplex DNA at 2 uM incubated for 2 mins by UV- vis spectrophotometric analysis. It is filed as nucleic-acid assay.
For series [8], the system named is Quadruplex DNA. The series is described as follows: Binding affinity to human EAD G-quadruplex DNA at 2 uM incubated for 2 mins by UV- vis spectrophotometric analysis. It is filed as nucleic-acid assay.
Another series has as its system HeLa. The series is described as follows: Antiproliferative activity against human HeLa cells assessed as reduction in cell viability after 72 hrs by CCK8 assay. It is filed as functional. (In general: Tetrazolium dyes change colour on reduction, which living cells bring about.)
In another series the test system is HCT-116. The series is described as follows: Antiproliferative activity against human HCT116 cells assessed as reduction in cell viability after 72 hrs by CCK8 assay. It is filed as functional.
A further series has as its system MDA-MB-231. The series is described as follows: Antiproliferative activity against human MDA-MB-231 cells assessed as reduction in cell viability after 72 hrs by CCK8 assay. It is filed as functional.
The test system of the next series is HEK-293T. The series is described as follows: Cytotoxicity against human 293T cells assessed as reduction in cell viability after 72 hrs by CCK8 assay. Format: cell-based.
The subject of series [9] is Quadruplex DNA. The series is described as follows: Binding affinity to human c-Myc G-quadruplex DNA assessed as fluorescence intensity at 2 uM by fluorescence spectra analysis. It is filed as nucleic-acid assay.
The test system of series [10] is Quadruplex DNA. The series is described as follows: Binding affinity to human Htg-21 G-quadruplex DNA assessed as fluorescence intensity at 2 uM by fluorescence spectra analysis. Format: nucleic-acid assay.
The test system of series [11] is Quadruplex DNA. The series is described as follows: Binding affinity to human CM22 G-quadruplex DNA assessed as fluorescence intensity at 2 uM by fluorescence spectra analysis. It is filed as nucleic-acid assay.
Series [12] concerns Quadruplex DNA. The series is described as follows: Binding affinity to human 22AG G-quadruplex DNA assessed as fluorescence intensity at 2 uM by fluorescence spectra analysis. Format: nucleic-acid assay.
For series [13], the system named is Quadruplex DNA. The series is described as follows: Binding affinity to human Hum24 G-quadruplex DNA assessed as fluorescence intensity at 2 uM by fluorescence spectra analysis. Format: nucleic-acid assay.
The test system of series [14] is Quadruplex DNA. The series is described as follows: Binding affinity to human G3T3 G-quadruplex DNA assessed as fluorescence intensity at 2 uM by fluorescence spectra analysis. Format: nucleic-acid assay.
Series [15] deals with Quadruplex DNA. The series is described as follows: Binding affinity to human EAD G-quadruplex DNA assessed as fluorescence intensity at 2 uM by fluorescence spectra analysis. It is filed as nucleic-acid assay.
Series [16] concerns Quadruplex DNA. The series is described as follows: Binding affinity to human Pu27 G-quadruplex DNA assessed as fluorescence intensity at 2 uM by fluorescence spectra analysis. Format: nucleic-acid assay.
In a further series the test system is ssDNA. The series is described as follows: Binding affinity to SS26 DNA (unknown origin) assessed as fluorescence intensity at 2 uM by fluorescence spectra analysis. Format: nucleic-acid assay.
Series [17] relates to DNA. The series is described as follows: Binding affinity to ds26 DNA (unknown origin) assessed as fluorescence intensity at 2 uM by fluorescence spectra analysis. It is filed as nucleic-acid assay.
In series [18] the test system is Calf thymus DNA. The series is described as follows: Binding affinity to calf thymus DNA assessed as fluorescence intensity at 2 uM by fluorescence spectra analysis. Format: nucleic-acid assay. Conditions: Bos taurus.
Series [19] deals with Poly(dG-dC)oligonucleotide. The series is described as follows: Binding affinity to poly (G-C)7 DNA assessed as fluorescence intensity at 2 uM by fluorescence spectra analysis. It is filed as nucleic-acid assay.
Series [20] relates to Quadruplex DNA. The series is described as follows: Binding affinity to human 22AG G-quadruplex DNA by spectrofluorophotometric method. It is filed as nucleic-acid assay.
In series [21] the target is Quadruplex DNA. The series is described as follows: Displacement of TO from human G3T3 G-quadruplex DNA at pH 7.4 by spectrofluorophotometric FID assay. Format: nucleic-acid assay.
Series [22] concerns Quadruplex DNA. The series is described as follows: Binding affinity to human G-Quadruplex DNA assessed as aggregation at 10 uM by TEM analysis. Format: nucleic-acid assay.
Series [23] has as its system Quadruplex DNA. The series is described as follows: Binding affinity to human CM22 G-quadruplex DNA by spectrofluorophotometric method. Format: nucleic-acid assay.
Series [24] has as its target Quadruplex DNA. The series is described as follows: Displacement of TO from human 22AG G-quadruplex DNA at pH 7.4 by spectrofluorophotometric based FID assay. It is filed as nucleic-acid assay.
The target in series [25] is Quadruplex DNA. The series is described as follows: Displacement of TO from human CM22 G-quadruplex DNA at pH 7.4 by spectrofluorophotometric FID assay. Format: nucleic-acid assay.
The target in series [26] is Quadruplex DNA. The series is described as follows: Displacement of TO from human c-Myc G-quadruplex DNA at pH 7.4 by spectrofluorophotometric FID assay. Format: nucleic-acid assay.
Series [27] addresses Quadruplex DNA. The series is described as follows: Displacement of TO from human Htg 21 G-quadruplex DNA at pH 7.4 by spectrofluorophotometric FID assay. It is filed as nucleic-acid assay.
Series [28] has as its target Quadruplex DNA. The series is described as follows: Displacement of TO from human Hum 24 G-quadruplex DNA at pH 7.4 by spectrofluorophotometric FID assay. It is filed as nucleic-acid assay.
For series [29], the target named is Quadruplex DNA. The series is described as follows: Displacement of TO from human Pu 27 G-quadruplex DNA at pH 7.4 by spectrofluorophotometric FID assay. It is filed as nucleic-acid assay.
In series [30] the target is Quadruplex DNA. The series is described as follows: Displacement of TO from human EAD G-quadruplex DNA at pH 7.4 by spectrofluorophotometric FID assay. It is filed as nucleic-acid assay.
Series [31] has as its target DNA. The series is described as follows: Displacement of TO from ds26 DNA (unknown origin) at pH 7.4 by spectrofluorophotometric FID assay. It is filed as nucleic-acid assay.
The subject of series [32] is Calf thymus DNA. The series is described as follows: Displacement of TO from calf thymus DNA at pH 7.4 by spectrofluorophotometric FID assay. It is filed as nucleic-acid assay, Bos taurus.
Series [33] has as its target Poly(dG-dC)oligonucleotide. The series is described as follows: Displacement of TO from Polyd(G-C)7 DNA at pH 7.4 by spectrofluorophotometric FID assay. It is filed as nucleic-acid assay.
In series [34] the test system is Quadruplex DNA. The series is described as follows: Binding affinity to human c-Myc G-quadruplex DNA assessed as inhibition of G4/hemin peroxidase at 1 to 5 uM preincubated for 1 hr followed by hemin addition and further incubated for 1 hr and H2O2 addition and measured after 30 mins by UV spectrophotometric method. It is filed as nucleic-acid assay.
Series [35] relates to Quadruplex DNA. The series is described as follows: Binding affinity to human Hum24 G-quadruplex DNA assessed as inhibition of G4/hemin peroxidase at 1 to 5 uM preincubated for 1 hr followed by hemin addition and further incubated for 1 hr and H2O2 addition and measured after 30 mins by UV spectrophotometric method. It is filed as nucleic-acid assay.
Series [36] relates to Quadruplex DNA. The series is described as follows: Binding affinity to human 22AG G-quadruplex DNA assessed as inhibition of G4/hemin peroxidase at 1 to 5 uM preincubated for 1 hr followed by hemin addition and further incubated for 1 hr and H2O2 addition and measured after 30 mins by UV spectrophotometric method. It is filed as nucleic-acid assay.
The test system of series [37] is Quadruplex DNA. The series is described as follows: Binding affinity to G-Quadruplex DNA in human HeLa cells assessed as red fluorescence emission in nucleus at 20 uM after 30 min by DAPI staining based confocal microscopic method. Format: cell-based.

Active and inactive are the calls of the source. No cut-off for these calls is given here.

`C[n+]1ccccc1/C=C/c1ccc(N2CCN(CCCN3C(=O)c4cccc5cccc(c45)C3=O)CC2)cc1.[I-]`: the outcome with Quadruplex DNA [1], with Quadruplex DNA [2], with Quadruplex DNA [3], in the series with Quadruplex DNA [4], in the series with Quadruplex DNA [5] and with Quadruplex DNA [6] was inactive. Further, the outcome in the series on Quadruplex DNA [7] and in the series with Quadruplex DNA [8] was inactive. The Activity in the series on HeLa turned out to be 0.1913 µM; with HCT-116 it was 0.5566 µM; with MDA-MB-231 it was 0.1014 µM; in the series with HEK-293T it was 1.753 µM. Also, the fold change (FC) in the series with Quadruplex DNA [9] is 16; in the series on Quadruplex DNA [10], 700 to 1800; with Quadruplex DNA [11] it was 700 to 1800; in the series with Quadruplex DNA [12], 700 to 1800; in the series on Quadruplex DNA [13], 700 to 1800; in the series with Quadruplex DNA [14] it was 700 to 1800. The fold change (FC) in the series on Quadruplex DNA [15] lay within 700 to 1800; in the series with Quadruplex DNA [16], 700 to 1800; with ssDNA, 50 to 300; with DNA [17], 50 to 300; in the series on Calf thymus DNA [18], 50 to 300; in [19], 50 to 300.
As for `O=c1[nH]cc(F)c(=O)[nH]1` [FLUOROURACIL], the Activity in the series on HeLa was found to be 0.8046 µM; in the series with HCT-116, 1.123 µM; in the series with MDA-MB-231, 0.8615 µM; with HEK-293T, 0.5879 µM.
On to `C[n+]1c(/C=C/c2ccc(N3CCN(CCCN4C(=O)c5cccc6cccc(c56)C4=O)CC3)cc2)ccc2c3ccccc3ccc21.[I-]`, for which the result with Quadruplex DNA [1], in the series with Quadruplex DNA [2], in the series with Quadruplex DNA [3], with Quadruplex DNA [4], in the series on Quadruplex DNA [5] and in the series with Quadruplex DNA [6] was Active. For the same compound, the result with Quadruplex DNA [7], in the series on Quadruplex DNA [8], in the series on Quadruplex DNA [22] and with Quadruplex DNA [37] was Active. The values for the Ka in the series with Quadruplex DNA [20] and in the series with Quadruplex DNA [23] were 0.27 ×10⁶ /M and 290000 M⁻¹, respectively. Besides, the DC50 was found to be 410 nM on Quadruplex DNA [21]; 480 nM on Quadruplex DNA [24]; 390 nM at Quadruplex DNA [25]; 320 nM at Quadruplex DNA [26]; 690 nM at Quadruplex DNA [27]; 500 nM at Quadruplex DNA [28]. Further, the DC50 at Quadruplex DNA [29] was 320 nM; on Quadruplex DNA [30] it was 350 nM; on DNA [31], 980 nM; with Calf thymus DNA [32] it was 850 nM; in [33], more than 1500 nM. For the same compound, the inhibition entry in the series on Quadruplex DNA [34], in the series with Quadruplex DNA [35] and with Quadruplex DNA [36] was “Active” in each case. Also, the Activity in the series with HeLa stood at 0.2438 µM; in the series on HCT-116, 0.4764 µM; in the series on MDA-MB-231, 0.1432 µM; with HEK-293T, 0.5372 µM. In addition, the fold change (FC) in the series on Quadruplex DNA [9] was 1800; with Quadruplex DNA [10] it was 700 to 1800; in the series with Quadruplex DNA [11], 700 to 1800; in the series on Quadruplex DNA [12], 700 to 1800; in the series with Quadruplex DNA [13], 700 to 1800; in the series with Quadruplex DNA [14], 700 to 1800. Besides, the fold change (FC) with Quadruplex DNA [15] fell in the range of 700 to 1800; with Quadruplex DNA [16], 700 to 1800; in the series with ssDNA, 50 to 300; with DNA [17], 50 to 300; with Calf thymus DNA [18], 50 to 300; in series [19], 50 to 300.
